Data reported in patent US20110144209A1, “USE OF VASOCONSTRICTORS” (priority 2008, published 2011).

Experiments:
[1] = humans, 1.5 mg/kg, cited from earlier work
rhesus monkeys = details: cited from earlier work
humans = details: cited from earlier work
[2] = system: Sprague Dawley albino rats; experiment: Anesthesia-induced hypothermia in rats, topical norepinephrine cream on tail, feet and ears (Example 2); type: in vivo, rat
Method: This experiment was similar to the experiment of Example 1, although Sprague Dawley albino rats were used. […] The test cream composition was 10% Norepinephrine vasoactive substance, 10% penetration enhancer (propylene glycol), and 80% conventional base cream.
All rats were subjected to one hour pre-anesthesia time (t=−60 to t=0), one hour anesthesia (t=0 to t=60), and 4 hours post anesthesia (t=60 to t=300). The appropriate cream was applied to the tail, feet, and ears skin surface of each rat. There were four rats in each test/control group. Vasoconstrictor cream was applied to the test group rats 3 times, at t=−60, t=−30, and t=0 min before anesthesia. Core body temperature was measured rectally. Rat tail skin temperature was measured at around the mid-length of the tail by press touching the thermometer tip to the skin surface.

AVA = details: Pollock et al. 1996; cited from earlier work
[3] = system: porcine carotid arteriovenous anastomoses; details: porcine (De Vries et al. 1998); cited from earlier work
[4] = cited from earlier work
Male Wistar rats = system: Male Wistar rats
Description: Although there are differences between the thermoregulatory system of rats and humans, the tails and feet pads of rats function as thermoregulatory organs in a similar fashion to human skin. The rat tail skin and feet pads are exposed and not covered by fur. By controlling the blood flow to the tail skin and feet pads, the rat controls some of its heat dissipation to the environment. Only about 30% of the rat heat loss is regulated by the tail—much less than the role of the skin in humans.
Male Wistar rats, each about 400 g mass, were divided into three groups: a control group (C) of 8 rats, a test first group (A) of 7 rats, and a third test group (B) of 5 rats. All rats had test composition applied to the tail skin and the feet pads. All experiments were conducted at 23° C. ambient room temperature. All groups went though an anesthesia period of one hour (t=0 is time of start of anesthesia), and a follow-up period of 3 hours after end of anesthesia. Core body temperature (CBT) and tail skin temperature of the rats was measured using a thermocouple-based digital thermometer with 0.1° C. sensitivity.
For test group A, the cream was identical to that used for the control group, except it contained 6 wt. % epinephrine, a vasoconstrictor. The cream for test group B was the same as that for group A, except that the cream contained 20 wt. % penetration enhancer.
The cream on both control group C and test group A was applied at two times: first, concomitantly with application of anesthesia (t=0), and again at 20 min into anesthesia (t=20 m=⅓ h). CBT and tail temperatures were measured at t=0, 20, 40, 60, 120, 180 and 240 minutes.
In test group (B), two changes were made to the experimental procedure. First, the concentration of penetration enhancer (propylene glycol) in the cream was doubled to 20 wt. %. Second, the time of first cream application was done at 30 min before anesthesia (t=−30 min) and the second cream application was given with initiation of administration of anesthetic (t=0).

pigs = details: 6 wt.% epinephrine, 10 wt.% propylene glycol cream at t=-40 min and t=0; after 130 minutes; room 20° C.
Method: The same composition, but without the epinephrine, was prepared for use as a control. Five pigs, each weighing 55-65 kg, were divided into two groups, three in the experimental group and two in the control group. The cream was administered 40 minutes before the onset of anesthesia (t=−40 min) and again with the commencement of general anesthesia (t=0). The room temperature was 20° C., with +/−1° C. fluctuations due to the thermostat of the air conditioner. The pigs were not covered with anything other than the cream, with which there were covered over their entire skin surface. Core body temperature was measured at t=−40, 0, 30, 50, 70, 100 and 130 min.

adult male Wistar rat = details: injection into the preoptic area of rat brain; cited from earlier work
[5] = group B: 6 wt.% epinephrine, 20 wt.% propylene glycol

CNC(C)Cc1ccc2c(c1)OCO2 (centres unmarked) [MDMA, 3,4-methylenedioxymethamphetamine]
time of peak plasma concentration after oral administration [1]: about two
peak plasma concentration (average) ([1]; oral): 0.331 ng/mL
time to flat peak of thermoregulatory disruption effect (rhesus monkeys; monkeys, after intravenous injection): about 90 minutes
duration of flat peak of thermoregulatory disruption effect (rhesus monkeys; monkeys, intravenous injection): about 3 hours
hyperthermic rise compared to control (rhesus monkeys; rhesus monkeys, ambient temperature up to 31° C. (Banks et al. 2007)): ≤ 1 °C
hyperthermic response (humans; humans, all doses tested (up to 2.0 mg/kg), laboratory conditions (Liechti 2000)): little or no hyperthermic response
effect on core body temperature at different ambient temperatures (humans; recreational users, single exposure (Freedman et al. 2005)): produced hyperthermia regardless of ambient temperature

NC[C@H](O)c1ccc(O)c(O)c1 [Norepinephrine, Norepinephrine Bitartrate]
start of difference in core body temperature, time into anesthesia ([2]; 10% norepinephrine cream): about 20 min
reversal of core and tail temperatures versus control ([2]; 10% norepinephrine cream, at about 90 min post anesthesia): the control group temperature goes above the test group temperature
start of pronounced vasoconstrictor action after first application of cream ([2]; 10% norepinephrine cream, from skin and core temperature): about 80 min
test group core body temperature higher than control group ([2]; 10% norepinephrine, 10% propylene glycol cream applied t=-60, -30, 0 min, remaining anesthesia period and 60 min post anesthesia): 1-1.5 °C
effect on AVA (AVA): produced AVA vasoconstriction

Brc1c(NC2=NCCN2)ccc2nccnc12 [UK-14304, 5-bromo-N-(4,5-dihydro-1H-imidazol-2-yl)-6-quinoxalinamine]
effect on AVA (AVA): produced constriction of the AVA

c1ccc2c(c1)CC[C@H](CNCCCNC1=NCCCN1)O2 [alniditan]
constriction of carotid arteriovenous anastomoses [3]: potently constrict

CNC[C@H](O)c1ccc(O)c(O)c1 [epinephrine]
time after which activity diminishes significantly ([4]; topical): 3 h
time to initial vasoconstrictor action after application ([4]; topical): ≤ 20 min
response time of vasoconstrictor action (Male Wistar rats; 6% Epinephrine cream of Example 1): 20 to 30 min
duration of effect of vasoconstrictor application on CBT after anesthesia (Male Wistar rats; group A: 6 wt.% epinephrine, 10 wt.% propylene glycol): at least 3 hours
tail temperature versus control group (Male Wistar rats; group A: 6 wt.% epinephrine, 10 wt.% propylene glycol, 20 minutes into the experiment): higher in the control group than in group A
difference in CBT between test and control group (Male Wistar rats; group A: 6 wt.% epinephrine, 10 wt.% propylene glycol, after 40 minutes through the remainder of the experiment (240 min)): one
difference in CBT between groups A and C (Male Wistar rats; group A: cream with 6 wt.% epinephrine, 10 wt.% propylene glycol, applied t=0 and 20 min, first 40 minutes, 23° C. ambient): no significant difference
time after which test group temperature rapidly falls off (Male Wistar rats; [5]): 2 h
time from anesthesia within which the CBT difference is established (Male Wistar rats; [5]): ≤ 20 min
difference in CBT versus control group C (Male Wistar rats; group B: 6 wt.% epinephrine, 20 wt.% propylene glycol, applied t=-30 min and t=0, maintained throughout anesthesia (t=60 m)): 2 °C
average decrease in CBT (pigs): 0.7 °C

COc1ccc(OC)c(C(O)C(C)N)c1 (centres unmarked) [methoxamine]
effect on body temperature (adult male Wistar rat): resulted in hypothermia

CNC[C@H](O)c1cccc(O)c1 [phenylephrine]
time after application at which vasoconstricting effect begins ([4]; topical / dermal): about 3 hours
effect on AVA (AVA): produced AVA constriction

CNS(=O)(=O)Cc1ccc2[nH]cc(CCN(C)C)c2c1 [sumatriptan]
constriction of carotid arteriovenous anastomoses [3]: potently constrict
